Results on four molecules are retold here after US6893846B2, “Primers for use in detecting beta-lactamases” (priority 1998, dated 2005).

In brackets after ≈: the same amount, converted by molar mass.

Series [1] relates to K. pneumoniae 225. Briefly: NCCLS microdilution susceptibility test. The conditions noted are these: Klebsiella pneumoniae, 225. The series is classed as cell-based, Klebsiella pneumoniae.
In series [2] the test system is K. pneumoniae 225. Briefly: Three-dimensional test (enzymatic inactivation of antibiotics). To be noted: beta-lactamase-mediated hydrolysis by K. pneumoniae 225, lawn E. coli ATCC 25922.
The subject of series [3] is E. coli C600 transconjugant. The conditions noted are these: disk diffusion, Tc = transconjugate E. coli C600.
The test system of series [4] is E. coli HB101 transformant (17 kb plasmid). To be noted: disk diffusion, Tr (17 kb) = transformant E. coli HB101.
Series [5] has as its system E. aerogenes. Nature of the series: Vitek automated susceptibility system. The series is classed as cell-based, Enterobacter aerogenes. The conditions noted are these: the 31 selected E. aerogenes strains. The source says:
Among all E. aerogenes recovered from clinical specimens during an eighteen month period (September 1993 to March 1995), thirty-one E. aerogenes strains showing a resistance phenotype different from that observed with derepressed mutants normally encountered at the Hunter Holmes McGuire Medical Center, Richmond, Va. were selected for this study. The strains selected were intermediate to ceftriaxone but resistant to ceftazidime when tested with the Vitek automated susceptibility system (bioMerieux Vitek, St. Louis, Mo.). Derepressed mutants previously isolated from this center were usually resistant to both ceftriaxone and ceftazidime.

Series [6] relates to E. aerogenes. Nature of the series: Double-disk potentiation test. It counts as cell-based, Enterobacter aerogenes. The conditions noted are these: all the E. aerogenes strains selected; potentiation by clavulanic acid. The source says:
This test described by Jarlier et al., Rev. Infect. Dis.

The subject of series [7] is K. pneumoniae 225. To be noted: test drug disk around amoxicillin-clavulanate disk.
Series [8] deals with K. pneumoniae 225. Nature of the series: NCCLS disk diffusion assay. The series is classed as cell-based, Klebsiella pneumoniae. The conditions noted are these: disk diffusion, Kleb 225.
The subject of series [9] is SHV and TEM genes. Briefly: PCR amplification with TEM and SHV primers. Further details: species or system Klebsiella pneumoniae. Here is the method:
(§1) The organisms were inoculated into 5 ml of Luria Bertani (LB) broth (Difco, Detroit, Mich.) and incubated for 20 hours at 37° C. with shaking. Cells from 1.5 ml of overnight culture were harvested by centrifugation at 17,310×g in an Hermle centrifuge for 5 minutes. After the supernatant was decanted, the pellet was resuspended in 500 μl of distilled water. The cells were lysed by heating at 95° C. for 10 minutes and cellular debris was removed by centrifugation for 5 minutes at 17,310×g. The supernatant was used as source of template for amplification.
(§2) The following oligonucleotide primers specific for the SHV and TEM genes were designed by using MacVector version 4.5 (Kodak/IBI): SHV genes: A [5′-([…])-3′] (SEQ ID NO:10) and B [5′-([…])-3′] (SEQ ID NO:11) corresponding to nucleotide numbers 103 to 121 and 988 to 970, respectively, of Mercier et al., Antibicrob. Agents Chemother. 34:1577-1583 (1990)); TEM genes: C [5′-([…])-3′ (SEQ ID NO:5) and D [5′-([…])-3′ (SEQ ID NO:1) corresponding to nucleotide numbers 90 to 105 and 1062 to 1042, respectively, of Sutcliff et al., Proc. Nat. Aca. Sci. USA, 75:3737-3741 (1978). Primers A and B amplified a 885 base pair fragment while primers C and D amplified a 971 base pair fragment. The specificity of the SHV and TEM primers for amplification of SHV and TEM genes respectively was tested by using the following beta-lactamase controls; TEM-I (pACYC177), MIR-1 (from K. pneumoniae96D) and SHV-7 (pCLL3410).
PCR amplifications were carried out on a DNA Thermal Cycler 480 instrument (Perkin-Elmer, Cetus, Norwalk, Conn.) using the Gene Amp DNA amplification kit containing AmpliTaq polymerase (Perkin Elmer, Roche Molecular Systems, Inc., Branchburg, N.J.). The composition of the reaction mixture was as follows: 10 mM Tris-HCl (pH 8.3), 50 mM KCl, 0.1% TRITON X-100, 1.5 mM MgCl2, 0.2 mM (each) of the four deoxynucleoside triphosphates, and 1.2 U of AmpliTaq in a total volume of 49 μl. A total of 1 μl of sample lysate was added to the reaction mixture, and was centrifuged briefly before […] of mineral oil was layered on the surface. The PCR program consisted of an initial denaturation step at 96° C. for 15 seconds; followed by 24 cycles of DNA denaturation at 96° C. for 15 seconds, primer annealing at 50° C. for 15 seconds and primer extension at 72° C. for 2 minutes. After the last cycle the products were stored at 4° C. The PCR products (1/10 volume) were analyzed by electrophoresis using 1.4% agarose gels in TAE buffer (0.04 M Tris-acetate, 0.002 M EDTA [pH 8.5]). The gels were stained with ethidium bromide and the PCR products were visualized with ultra-violet light. […] The larger product which corresponded to the expected size of the SHV specific product was gel purified using a 1.4% agarose in TAE gel and the purified PCR product was used for sequence analysis.

Series [10] has as its system SHV and TEM genes. Briefly: PCR amplification with TEM and SHV primers. Further details: species or system Proteus mirabilis. To be noted: P. mirabilis Pit 85 (pI 5.6, TEM-26-type). The method, then: as §1
The following oligonucleotide primers specific for the SHV and TEM genes were designed by using MacVector version 4.5 (Kodak/IBI): SHV genes: A [5′-([…])-3′] (SEQ ID NO:10) and B [5′-([…])-3′] (SEQ ID NO:11) corresponding to nucleotide numbers 103 to 121 and 988 to 970, respectively, of Mercier et al., Antibicrob. Agents Chemother. […]
PCR amplifications were carried out on a DNA Thermal Cycler 480 instrument (Perkin-Elmer, Cetus, Norwalk, Conn.) using the Gene Amp DNA amplification kit containing AmpliTaq polymerase (Perkin Elmer, Roche Molecular Systems, Inc., Branchburg, N.J.). […] The PCR products (1/10 volume) were analyzed by electrophoresis using 1.4% agarose gels in TAE buffer (0.04 M Tris-acetate, 0.002 M EDTA [pH 8.5]). […]

Series [11] relates to SHV and TEM genes. Nature of the series: PCR amplification with TEM and SHV primers. The arrangement: species or system Escherichia coli. The method, then: as §1, §2
PCR amplifications were carried out on a DNA Thermal Cycler 480 instrument (Perkin-Elmer, Cetus, Norwalk, Conn.) using the Gene Amp DNA amplification kit containing AmpliTaq polymerase (Perkin Elmer, Roche Molecular Systems, Inc., Branchburg, N.J.). The composition of the reaction mixture was as follows: 10 mM Tris-HCl (pH 8.3), 50 mM KCl, 0.1% TRITON X-100, 1.5 mM MgCl2, 0.2 mM (each) of the four deoxynucleoside triphosphates, and 1.2 U of AmpliTaq in a total volume of 49 μl. A total of 1 μl of sample lysate was added to the reaction mixture, and was centrifuged briefly before […] of mineral oil was layered on the surface. The PCR program consisted of an initial denaturation step at 96° C. for 15 seconds; followed by 24 cycles of DNA denaturation at 96° C. for 15 seconds, primer annealing at 50° C. for 15 seconds and primer extension at 72° C. for 2 minutes. After the last cycle the products were stored at 4° C. The PCR products (1/10 volume) were analyzed by electrophoresis using 1.4% agarose gels in TAE buffer (0.04 M Tris-acetate, 0.002 M EDTA [pH 8.5]). The gels were stained with ethidium bromide and the PCR products were visualized with ultra-violet light. […]

For series [12], the system named is K. pneumoniae and A. hydrophila wound infection. The conditions noted are these: one patient, intravenous, after four weeks of therapy.
[13] abbreviates: K. pneumoniae Pit 16 (pI 5.6, TEM-26-type).
Where [14] appears, read: K. pneumoniae Pit 82 (pI 8.2, SHV-5).
Setting [15] is: K. pneumoniae Pit 100 (pI 7.6, SHV-2).
The mark [16] stands for this setting: E. coli Pit 64 (pI 5.6, TEM-26-type).

With `CO/N=C(\C(=O)N[C@@H]1C(=O)N2C(C(=O)O)=C(CSc3nc(=O)c(=O)[nH]n3C)CS[C@H]12)c1csc(N)n1` [ceftriaxone], the minimum inhibitory concentration (MIC) in series [1] was 16 µg/mL (≈ 28.9 µM). Besides, the three dimensional test result in series [2] is recorded as “positive”. Also, the “Zone Size” value is given as 12 mm in series [3], 32 mm in [4] and 13 mm in series [8]. For the same molecule, the Vitek susceptibility result in series [5] is recorded as “intermediate”. Besides, the double disk test entry in [6] is “positive”. Further, the “clavulanate double-disk potentiation test” value in series [7] is “positive”.
As for “SHV primers: primer pair A (SEQ ID NO:10) and B (SEQ ID NO:11) specific for the SHV genes (DNA 1 CACTCAAGGATGTATTGTG; DNA 2 TTAGCGTTGCCAGTGCTCG; listed as DNA, chemistry not given here)”, the Amplification with primers entry in series [9] (setting [13]) is reported as “No”; in [9] (setting [14]) it was “Yes”; in series [9] (setting [15]), “Yes”; in series [10], “No”; in series [11] (E. coli Pit 56 (pI 7.6, SHV-2)), “Yes”; in series [11] (setting [16]), “No”.
For the molecule “TEM primers: primer pair C (SEQ ID NO:5) and D (SEQ ID NO:1) specific for the TEM genes (DNA 1 TCGGGGAAATGTGCG; DNA 2 TGCTTAATCAGTGAGGCACC; listed as DNA, chemistry not given here)”, the Amplification with primers result was “Yes” in [9] (setting [13]); “No” in series [9] (setting [14]); “No” in [9] (setting [15]); “Yes” in series [10]; “No” in [11] (E. coli Pit 56 (pI 7.6, SHV-2)); “Yes” in [11] (setting [16]).
For the molecule imipenem/cilastatin, the “clinical outcome of therapy” value in series [12] is reported as “all signs of inflammation resolved”.
